The values that follow come from article PMC7547832 (Journal of Fluorine Chemistry, 2020).

What all share (assay type): cell-based
Series [1] can be described thus: Toxicity studies, microtetrazolium test. The note with it: dog, MDCK cells (ATCC CCL-34).
In series [2] the test system is Influenza virus A/Puerto Rico/8/34 (H1N1). The conditions noted are these: ratio of CC50 to IC50, MDCK cell line.
Series [3] has as its system Coxsackie virus B3. The series is described as follows: Cell protection assay, Coxsackie virus B3 in Vero cells. The note with it: for IC50: Enterovirus B, B3, Vero, 72 h; for SI (selectivity index): ratio of CC50 to IC50, Coxsackie virus B3, Vero cell line.

The term CC50 denotes the concentration that lowers cell viability or growth by half. Low values mean harm at low concentration, high ones better tolerance by the cells. The term IC50 denotes the point on the concentration scale where inhibition reaches its midpoint. High values mean weaker potency in that assay, low ones greater potency in that assay. In series [1], `COC(=O)c1c(-c2ccc(OC)c(OC)c2)oc2c(F)c(F)c(F)c(F)c2c1=O` [Compound 4a, Methyl 5,6,7,8-tetrafluoro-2-(3,4-dimethoxyphenyl)-4-oxo-4H-chromene-3-carboxylate] yielded a CC50 at 48 h of 109 ± 8 µM. Further, the “SI (selectivity index)” value in series [2] is recorded as 2. In addition, the IC50 in series [3] was greater than 61 µM.

Regarding `COC(=O)c1c(-c2ccc(OC)c(OC)c2)oc2c(F)c(F)c(F)cc2c1=O` [Compound 5а, Methyl 6,7,8-trifluoro-2-(3,4-dimethoxyphenyl)-4-oxo-4H-chromene-3-carboxylate], the 50% cytotoxic concentration (CC50) at 48 h in series [1] turned out to be 508 ± 32 µM. Also, the “SI (selectivity index)” value in series [2] stood at 16. The molecule further displayed an IC50 in series [3] of 635 ± 42 µM.

As to `COC(=O)c1c(-c2ccc(OC)c(OC)c2)oc2c(F)c(-n3ccnc3)c(F)c(F)c2c1=O` [Compound 6a, Methyl 5,6,8-trifluoro-2-(3,4-dimethoxyphenyl)-7-(1H-imidazol-1-yl)-4-oxo-4H-chromene-3-carboxylate], the half-maximal cytotoxic concentration (CC50) at 48 h in series [1] amounted to 61 ± 4 µM. For the same molecule, the “SI (selectivity index)” value in series [2] came to 5. Besides, the IC50 in series [3] is greater than 65 µM.

As for `COC(=O)c1c(-c2ccc(OC)c(OC)c2)oc2c(F)c(-n3ccnc3)c(F)cc2c1=O` [Compound 7а, Methyl 6,8-difluoro-2-(3,4-dimethoxyphenyl)-7-(1H-imidazol-1-yl)-4-oxo-4H-chromene-3-carboxylate], the CC50 at 48 h in series [1] was greater than 679 µM. Also, the half-maximal inhibitory concentration (IC50) in series [3] was greater than 226 µM.

`COC(=O)c1c(-c2ccc(OC)cc2)oc2c(F)c(-n3ccnc3)c(F)c(O)c2c1=O` [Compound 8b, Methyl 6,8-difluoro-5-hydroxy-7-(1H-imidazol-1-yl)-2-(4-methoxyphenyl)-4-oxo-4H-chromene-3-carboxylate] yielded a CC50 at 48 h in series [1] of 629 ± 41 µM. For the same molecule, the “SI (selectivity index)” value in series [2] stood at 16.

On to `COc1ccc(-c2cc(=O)c3c(F)c(F)c(-n4ccnc4)c(F)c3o2)cc1OC` [Compound 13, 5,6,8-Trifluoro-2-(3,4-dimethoxyphenyl)-7-(1H-imidazol-1-yl)-4H-chromene-4-one], for which the CC50 at 48 h in series [1] is greater than 746 µM. In series [3], it took 29 ± 4 µM to reach half-maximal inhibition (IC50) and the “SI (selectivity index)” value is 26. For the same molecule, in series [3] (Vero cell culture), the “antiviral properties against the Coxsackie virus B3 (in words)” value is given as “demonstrated antiviral properties against the Coxsackie virus B3”.

As for `NC(=O)c1ncn([C@@H]2O[C@H](CO)[C@@H](O)[C@H]2O)n1` [ribavirin, reference compound], in series [1], the CC50 at 48 h is greater than 2130 µM. Further, in series [3], the IC50 is 34 ± 4 µM and the “SI (selectivity index)” value was greater than 63.
